Values joined by “and” are separate entries in the source; they are usually repeats but may differ in a detail not shown here. Identical values can stand only once.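 These data come from cells grown in 96-well plates and exposed to compound for 48 hours at five concentrations. Definition used: TGI = concentration required for complete inhibition of growth.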
Key:
Test in all cases: DTP human tumour cell line panel, 48 h
SK-MEL-28 melanoma = test system: SK-MEL-28 melanoma
A498 renal = test system: A498 renal
NCI/ADR-RES ovarian = test system: NCI/ADR-RES ovarian
SW-620 colon = test system: SW-620 colon
HCT-15 colon = test system: HCT-15 colon
SK-MEL-2 melanoma = test system: SK-MEL-2 melanoma
HCT-116 colon = test system: HCT-116 colon
K-562 leukemia = test system: K-562 leukemia
M14 melanoma = test system: M14 melanoma
EKVX NSCLC = test system: EKVX NSCLC
OVCAR-5 ovarian = test system: OVCAR-5 ovarian
CAKI-1 renal = test system: CAKI-1 renal
MOLT-4 leukemia = test system: MOLT-4 leukemia
NCI-H23 lung = test system: NCI-H23 lung
OVCAR-3 ovarian = test system: OVCAR-3 ovarian
HT29 colon = test system: HT29 colon
MCF7 breast = test system: MCF7 breast
HL-60(TB) leukemia = test system: HL-60(TB) leukemia
SNB-19 CNS = test system: SNB-19 CNS
UACC-62 melanoma = test system: UACC-62 melanoma
A549 NSCLC = test system: A549 NSCLC
SK-OV-3 ovarian = test system: SK-OV-3 ovarian
CCRF-CEM leukemia = test system: CCRF-CEM leukemia
NCI-H226 lung = test system: NCI-H226 lung
HOP-62 NSCLC = test system: HOP-62 NSCLC
NCI-H522 lung = test system: NCI-H522 lung
COLO 205 colon = test system: COLO 205 colon
SN12C renal = test system: SN12C renal
KM12 colon = test system: KM12 colon
OVCAR-4 ovarian = test system: OVCAR-4 ovarian
PC-3 prostate = test system: PC-3 prostate
HCC-2998 colon = test system: HCC-2998 colon
SF-268 CNS = test system: SF-268 CNS
RPMI-8226 leukemia = test system: RPMI-8226 leukemia
U251 CNS = test system: U251 CNS
SF-295 CNS = test system: SF-295 CNS
OVCAR-8 ovarian = test system: OVCAR-8 ovarian
SNB-75 CNS = test system: SNB-75 CNS
SK-MEL-5 melanoma = test system: SK-MEL-5 melanoma
SR leukemia = test system: SR leukemia
LOX IMVI melanoma = test system: LOX IMVI melanoma
MDA-MB-435 = test system: MDA-MB-435
HOP-92 NSCLC = test system: HOP-92 NSCLC
UO-31 renal = test system: UO-31 renal
T-47D breast = test system: T-47D breast
SF-539 CNS = test system: SF-539 CNS
UACC-257 melanoma = test system: UACC-257 melanoma
MDA-MB-231 breast = test system: MDA-MB-231 breast
DU-145 prostate = test system: DU-145 prostate
786-0 renal = test system: 786-0 renal
HS 578T breast = test system: HS 578T breast
NCI-H460 lung = test system: NCI-H460 lung
RXF 393 renal = test system: RXF 393 renal
TK-10 renal = test system: TK-10 renal
ACHN renal = test system: ACHN renal
MALME-3M melanoma = test system: MALME-3M melanoma

Question: With CCCC(=O)Nc1cc(/C=C/C(=O)N2C[C@H]3C[C@@]34C2=CC(=O)c2[nH]cc(C)c24)n(C)c1 as the compound, how does the TGI (SK-MEL-28 melanoma) read?
Answer: The TGI was 6.78 nM.

Question: What about the TGI (A498 renal) of the same compound?
Answer: The TGI was < 0.0025 µM.

Question: What about the TGI (NCI/ADR-RES ovarian) of the same compound?
Answer: Its TGI is 110 nM and 50.7 nM.

Question: What about the TGI (SW-620 colon) of the same compound?
Answer: Its TGI is 25 µM and 7.75 µM.

Question: What about the TGI (HCT-15 colon) of the same compound?
Answer: Its TGI is 25 µM.

Question: What about the TGI (SK-MEL-2 melanoma) of the same compound?
Answer: The TGI was 25 µM.

Question: And the TGI (HCT-116 colon)?
Answer: Its TGI is 11 µM.

Question: What about the TGI (K-562 leukemia) of the same compound?
Answer: The TGI was 25 µM.

Question: And the TGI (M14 melanoma)?
Answer: Its TGI is 25 µM.

Question: And the TGI (EKVX NSCLC)?
Answer: The TGI was 1150 nM.

Question: And the TGI (OVCAR-5 ovarian)?
Answer: The TGI was 25 µM.

Question: What about the TGI (CAKI-1 renal) of the same compound?
Answer: The TGI was < 0.0025 µM.

Question: What about the TGI (MOLT-4 leukemia) of the same compound?
Answer: Its TGI is < 0.0025 µM.

Question: What about the TGI (NCI-H23 lung) of the same compound?
Answer: The TGI was 5.58 nM.

Question: What about the TGI (OVCAR-3 ovarian) of the same compound?
Answer: Its TGI is 9.47 nM.

Question: And the TGI (HT29 colon)?
Answer: Its TGI is 15.4 µM.

Question: What about the TGI (MCF7 breast) of the same compound?
Answer: The TGI was 25 µM.

Question: What about the TGI (HL-60(TB) leukemia) of the same compound?
Answer: The TGI was < 0.0025 µM.

Question: And the TGI (SNB-19 CNS)?
Answer: The TGI was 2.86 µM and 13.2 µM.

Question: What about the TGI (UACC-62 melanoma) of the same compound?
Answer: The TGI was < 0.0025 µM.

Question: And the TGI (A549 NSCLC)?
Answer: Its TGI is 25 µM.

Question: And the TGI (SK-OV-3 ovarian)?
Answer: Its TGI is 352 nM and 861 nM.

Question: What about the TGI (CCRF-CEM leukemia) of the same compound?
Answer: The TGI was < 0.0025 µM.

Question: And the TGI (NCI-H226 lung)?
Answer: The TGI was 250 nM.

Question: And the TGI (HOP-62 NSCLC)?
Answer: Its TGI is 25 µM.

Question: And the TGI (NCI-H522 lung)?
Answer: Its TGI is < 2.5 nM.

Question: And the TGI (COLO 205 colon)?
Answer: The TGI was 281 nM.

Question: What about the TGI (SN12C renal) of the same compound?
Answer: Its TGI is 257 nM.

Question: What about the TGI (KM12 colon) of the same compound?
Answer: The TGI was 267 nM and 1120 nM.

Question: What about the TGI (OVCAR-4 ovarian) of the same compound?
Answer: The TGI was 11.1 nM.

Question: What about the TGI (PC-3 prostate) of the same compound?
Answer: Its TGI is 25 µM.

Question: What about the TGI (HCC-2998 colon) of the same compound?
Answer: Its TGI is < 0.0025 µM.

Question: What about the TGI (SF-268 CNS) of the same compound?
Answer: Its TGI is > 100 µM.

Question: What about the TGI (RPMI-8226 leukemia) of the same compound?
Answer: Its TGI is 164 nM.

Question: What about the TGI (U251 CNS) of the same compound?
Answer: Its TGI is 1110 nM.

Question: What about the TGI (SF-295 CNS) of the same compound?
Answer: The TGI was 388 nM.

Question: What about the TGI (OVCAR-8 ovarian) of the same compound?
Answer: Its TGI is < 0.0025 µM.

Question: And the TGI (SNB-75 CNS)?
Answer: The TGI was 5.27 nM.

Question: And the TGI (SK-MEL-5 melanoma)?
Answer: Its TGI is 1040 nM.

Question: What about the TGI (SR leukemia) of the same compound?
Answer: The TGI was < 0.0025 µM.

Question: Which results are given for COc1cc(CC2CC(c3ccc4c(c3)OCO4)OC2=O)cc(OC)c1OC (stereo not drawn)?
Answer: TGI (SK-MEL-28 melanoma): > 100000 nM; TGI (LOX IMVI melanoma): > 100 µM; TGI (A498 renal): > 100 µM; TGI (NCI/ADR-RES ovarian): > 100000 nM; TGI (MDA-MB-435): > 100 µM; TGI (SW-620 colon): > 100 µM; TGI (HCT-15 colon): > 100 µM; TGI (HCT-116 colon): > 100 µM; TGI (K-562 leukemia): > 100 µM; TGI (HOP-92 NSCLC): > 100 µM; TGI (M14 melanoma): > 100 µM; TGI (UO-31 renal): 82.4 µM; TGI (T-47D breast): > 100 µM; TGI (EKVX NSCLC): > 100000 nM; TGI (OVCAR-5 ovarian): > 100 µM; TGI (CAKI-1 renal): > 100 µM; TGI (MOLT-4 leukemia): > 100 µM; TGI (NCI-H23 lung): > 100000 nM; TGI (OVCAR-3 ovarian): > 100000 nM; TGI (HT29 colon): > 100 µM; TGI (SF-539 CNS): > 100 µM; TGI (MCF7 breast): > 100 µM; TGI (UACC-257 melanoma): > 100 µM; TGI (HL-60(TB) leukemia): > 100 µM; TGI (SNB-19 CNS): > 100 µM; TGI (UACC-62 melanoma): > 100 µM; TGI (A549 NSCLC): > 100 µM; TGI (MDA-MB-231 breast): > 100 µM; TGI (SK-OV-3 ovarian): > 100000 nM; TGI (CCRF-CEM leukemia): > 100 µM; TGI (NCI-H226 lung): > 100000 nM; TGI (HOP-62 NSCLC): > 100 µM; TGI (DU-145 prostate): > 100 µM; TGI (COLO 205 colon): > 100000 nM; TGI (SN12C renal): > 100000 nM; TGI (KM12 colon): > 100000 nM; TGI (786-0 renal): > 100 µM; TGI (HS 578T breast): > 100 µM; TGI (PC-3 prostate): > 100 µM; TGI (NCI-H460 lung): > 100 µM; TGI (HCC-2998 colon): > 100 µM; TGI (SF-268 CNS): > 100 µM; TGI (RXF 393 renal): > 100 µM; TGI (RPMI-8226 leukemia): > 100000 nM; TGI (TK-10 renal): > 100 µM; TGI (U251 CNS): > 100000 nM; TGI (SF-295 CNS): > 100000 nM; TGI (ACHN renal): > 100 µM; TGI (OVCAR-8 ovarian): > 100 µM; TGI (SNB-75 CNS): > 100000 nM; TGI (SK-MEL-5 melanoma): > 100000 nM; TGI (MALME-3M melanoma): > 100 µM; TGI (SR leukemia): > 100 µM

Source: PubChem BioAssay (NCI)
